pIC50: −log10 of the molar value.
Columns and labels:
[1] = test system: Gαq/Gα11; test: Immunoprecipitation of Gαq/Gα11 from 32P-labeled platelets; type: cell-based, human; conditions: 32P-labeled platelets treated with compound
Source text: (§1) In separate immunoprecipitation experiments, we also examined whether Gαq/Gα11 or its effector PLCβ, were phosphorylated in response to NO or cGMP. Anti-Gαq/Gα11 antibodies were obtained from D. Manning (University of Pennsylvania; Woolkalis, M. J. et al., 1986, J. Biol. Chem. 261:3408-3413).

[2] = target: T1, TXA2 receptor (Homo sapiens, UniProt P21731); test: In vivo phosphorylation of TXA2 receptors in 32P-labeled HEL cells; type: cell-based
T1 construct: HEL cells, which contain high densities of the platelet TXA2 receptor; endogenous in cells; host or cells: HEL cells
T1 sequence (P21731 1-343): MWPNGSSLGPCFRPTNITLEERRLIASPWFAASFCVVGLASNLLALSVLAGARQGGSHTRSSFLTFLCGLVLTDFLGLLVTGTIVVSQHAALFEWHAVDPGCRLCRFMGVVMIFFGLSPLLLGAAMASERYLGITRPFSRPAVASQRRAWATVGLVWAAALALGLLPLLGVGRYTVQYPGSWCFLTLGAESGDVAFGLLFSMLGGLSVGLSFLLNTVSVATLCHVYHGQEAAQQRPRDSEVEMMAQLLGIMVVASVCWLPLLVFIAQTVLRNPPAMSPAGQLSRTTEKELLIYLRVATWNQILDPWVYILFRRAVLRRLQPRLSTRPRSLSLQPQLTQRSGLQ
Method: To examine whether cGMP can lead to phosphorylation of TXA2 receptors in vivo, studies were performed using HEL cells, which contain high densities of the platelet TXA2 receptor (Allan, C. J. et al., 1996, J. Pharmacol. Exp. Ther. 277:1132-1139; Mayeux, P. R. et al., 1989, J. Pharmacol. Exp. Ther. 250:923-927).
HEL cells were labeled with ^32P (Mendelsohn, M. E. et al., 1991, supra) and then exposed to buffer alone (10 minutes), U46619 (5 μM, 10 minutes), or 8-Br-cGMP (10 mM, 15 minutes). Reactions were terminated by addition of ice-cold TEB buffer: 20 mM Tris-Cl, pH 7.4, 5 mM EGTA, 0.128 mg/ml phenylmethylsulfonyl fluoride, 0.15 mg/ml benzamidine Cl, followed by preparation of solubilized TXA2 receptor fractions in CHAPS buffer: 20 mM Tris-Cl, pH 7.4, 5 mM EGTA, 25% glycerol, 0.128 mg/ml phenylmethylsulfonyl fluoride, 0.15 mg/ml benzamidine Cl, 10 mM CHAPS (Schror, K. et al., 1995, Biochem. Pharmacol. 49: 921-927). TXA2 receptor fractions were then purified on and eluted from TXA2 antibody affinity beads, resolved by SDS-PAGE, and transferred to nitrocellulose. Receptor was quantified by immunoblotting and phosphorylation was quantitated by PhosphorImager analysis (Mendelsohn, M. E. et al., 1991, supra). […]

[3] = test system: TXA2-specific GTPase in human platelet membranes; test: TXA2 receptor-coupled GTPase activity in human platelet membranes; type: biochemical
Method: Platelets were prepared from plateletpheresis units as described (Benka, M. L. et al., 1995, supra; Zhu, Y. et al., 1994, supra).
TXA2-stimulated GTPase activity was measured in platelet membranes by initiating reactions by the addition of 20-45 μg of platelet membranes to tubes in the absence or presence of 10 μM of the thromboxane analog, U46619, (Benka, M. L. et al., The MBL Physiology Course, Busa, W. B. & Mendelsohn, M. E., 1995, FEBS Lett. 363: 49-52). The final reaction mixture (total volume=100 μl) contained 0.4 μM GTP, including 0.6-0.9 μCi of [γ-^32P]GTP(1.5-2×10^6 dpm), as well as 100 mM NaCl, 0.1 mM EGTA, 2 mM MgCl2, 1 mM dithiothreitol, 0.1 mM ATP, 5 mM phosphocreatine, 100 units/ml creatine phosphokinase, 0.2% bovine serum albumin, 50 mM triethanolamine HCl, pH 7.4, and indicated concentrations of agonist.
[…] GTPase reactions were terminated with 5% activated charcoal/20 mM phosphoric acid, and high affinity GTPase activity was measured and calculated (Shenker, A. et al., 1991, J. Biol. Chem. 268: 26011-26017; Benka et al., supra).

[4] = test system: PLCβ; test: PLCβ phosphorylation in platelets (PLCβ antibodies); type: cell-based, human; conditions: monoclonal and polyclonal PLCβ antibodies
Source text: as §1

[5] = test system: thrombin receptor; test: Thrombin receptor-mediated vascular smooth muscle cell activation; type: cell-based; conditions: FIG. 6A-6C; effect reversed by inhibition of G kinase
Source text: The activation of vascular smooth muscle cells by thrombin receptor is inhibited by nitric oxide (FIG. 6A). […] This effect is reversed by inhibition by G kinase.

Row | Compound | Gαq/Gα11 G protein phosphorylation [1] | phosphorylation of PLCβ [4] | inhibition of thrombin receptor-mediated vascular smooth muscle cell activation [5] | other results
1 | Nc1nc2c(nc(Br)n2[C@@H]2O[C@@H]3COP(=O)(O)O[C@H]3[C@H]2O)c(=O)[nH]1 [8-Br-cGMP, 8-bromo-cyclic GMP] | did not demonstrate any significant G protein phosphorylation |  |  | TXA2 receptor phosphorylation ([2]; 10 mM, 15 minutes): clear and significant increases in TXA2 receptor phosphorylation to a level comparable with agonist-induced phosphorylation; pIC50 ([3]; platelet membranes pretreated 10 minutes at room temperature before U46619 stimulation, n=3 experiments in triplicate, read-out: mean IC50, inhibition of U46619-stimulated GTPase activity): 7.12; decrease of basal platelet membrane GTPase activity ([3]; pretreatment with 500 μm 8-Br-cGMP, n=4): 8±9%
2 | CC(=O)N[C@@H](CSN=O)C(=O)O [S-nitroso-N-acetylcysteine] | did not demonstrate any significant G protein phosphorylation |  |  | 
3 | CCCCC[C@H](O)/C=C/[C@@H]1[C@@H](C/C=C\CCCC(=O)O)[C@H]2CO[C@@H]1C2 [U46619] |  |  |  | TXA2 receptor phosphorylation ([2]; 5 μM, 10 minutes): phosphorylated; average increase in GTPase activity (stimulation of TXA2-specific GTPase) ([3]; untreated platelet membranes, 10 μM U46619, n=three experiments in triplicate): 5.5±1.3 pmol of 32P/min/mg platelet pr
4 | Nc1nc2c(ncn2[C@@H]2O[C@@H]3COP(=O)(O)O[C@H]3[C@H]2O)c(=O)[nH]1 [cyclic GMP] |  | no increase in phosphorylation of PLCβ | inhibition | 
5 | [N]=O [nitric oxide] |  | no increase in phosphorylation of PLCβ | inhibited | 
